Values quoted from earlier work as cited in patent US20250243467A1, “BONE MARROW ORGANOIDS PRODUCED FROM INDUCED PLURIPOTENT STEM CELLS AND USES OF THESE ORGANOIDS” (PRISM INGENUITY GMBH, priority 2022, published 2025).

Experiments:
ALK6 = ALK6 (Homo sapiens, UniProt O00238)
ALK3 = ALK3 (Homo sapiens, UniProt P36894)
ALK2 = ALK2 (Homo sapiens, UniProt Q04771)
ALK7 = target: T1, ALK7 (Homo sapiens, UniProt Q8NER5); conditions: competing for the ATP binding site
T1 sequence (Q8NER5 21-493): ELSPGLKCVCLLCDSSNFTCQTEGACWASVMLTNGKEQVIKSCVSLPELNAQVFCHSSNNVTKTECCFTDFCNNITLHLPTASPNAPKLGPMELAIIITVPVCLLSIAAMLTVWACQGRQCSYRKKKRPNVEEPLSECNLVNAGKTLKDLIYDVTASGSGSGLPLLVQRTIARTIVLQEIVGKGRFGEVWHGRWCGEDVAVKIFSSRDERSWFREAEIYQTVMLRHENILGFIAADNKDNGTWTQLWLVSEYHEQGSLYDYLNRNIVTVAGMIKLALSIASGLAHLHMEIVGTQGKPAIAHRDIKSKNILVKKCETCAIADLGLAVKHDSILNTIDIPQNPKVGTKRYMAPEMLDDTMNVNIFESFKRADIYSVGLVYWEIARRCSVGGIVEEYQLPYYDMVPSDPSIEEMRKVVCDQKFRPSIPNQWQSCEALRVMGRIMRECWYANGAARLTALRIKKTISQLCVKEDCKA

Sequence of ALK6 (O00238 14-502): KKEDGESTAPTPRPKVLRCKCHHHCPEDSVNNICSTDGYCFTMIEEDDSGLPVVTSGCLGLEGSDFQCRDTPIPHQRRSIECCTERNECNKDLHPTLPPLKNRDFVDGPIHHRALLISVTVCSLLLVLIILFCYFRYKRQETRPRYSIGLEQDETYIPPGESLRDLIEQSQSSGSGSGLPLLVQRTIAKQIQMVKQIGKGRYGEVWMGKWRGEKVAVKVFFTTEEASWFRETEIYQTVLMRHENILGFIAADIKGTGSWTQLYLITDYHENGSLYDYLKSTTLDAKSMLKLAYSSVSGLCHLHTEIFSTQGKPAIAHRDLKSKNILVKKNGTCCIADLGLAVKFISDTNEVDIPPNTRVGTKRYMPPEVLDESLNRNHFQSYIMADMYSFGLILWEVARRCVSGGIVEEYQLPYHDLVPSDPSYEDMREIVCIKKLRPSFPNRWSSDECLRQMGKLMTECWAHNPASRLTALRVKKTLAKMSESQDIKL
Sequence of ALK3 (P36894 24-532, species assumed): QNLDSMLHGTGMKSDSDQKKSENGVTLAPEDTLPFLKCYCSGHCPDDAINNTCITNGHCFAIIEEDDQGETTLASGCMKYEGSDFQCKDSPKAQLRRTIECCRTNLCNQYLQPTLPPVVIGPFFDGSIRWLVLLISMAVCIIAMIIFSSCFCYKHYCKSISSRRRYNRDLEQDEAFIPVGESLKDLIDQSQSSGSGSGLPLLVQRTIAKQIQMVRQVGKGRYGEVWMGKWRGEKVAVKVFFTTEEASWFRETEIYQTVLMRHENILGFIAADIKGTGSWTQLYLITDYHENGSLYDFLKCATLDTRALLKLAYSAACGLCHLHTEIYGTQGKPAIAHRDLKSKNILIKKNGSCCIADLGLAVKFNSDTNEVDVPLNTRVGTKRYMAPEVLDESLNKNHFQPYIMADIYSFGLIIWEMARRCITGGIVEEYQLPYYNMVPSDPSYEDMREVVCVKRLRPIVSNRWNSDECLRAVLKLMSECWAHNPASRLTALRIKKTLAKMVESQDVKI
Sequence of ALK2 (Q04771 21-509, species assumed): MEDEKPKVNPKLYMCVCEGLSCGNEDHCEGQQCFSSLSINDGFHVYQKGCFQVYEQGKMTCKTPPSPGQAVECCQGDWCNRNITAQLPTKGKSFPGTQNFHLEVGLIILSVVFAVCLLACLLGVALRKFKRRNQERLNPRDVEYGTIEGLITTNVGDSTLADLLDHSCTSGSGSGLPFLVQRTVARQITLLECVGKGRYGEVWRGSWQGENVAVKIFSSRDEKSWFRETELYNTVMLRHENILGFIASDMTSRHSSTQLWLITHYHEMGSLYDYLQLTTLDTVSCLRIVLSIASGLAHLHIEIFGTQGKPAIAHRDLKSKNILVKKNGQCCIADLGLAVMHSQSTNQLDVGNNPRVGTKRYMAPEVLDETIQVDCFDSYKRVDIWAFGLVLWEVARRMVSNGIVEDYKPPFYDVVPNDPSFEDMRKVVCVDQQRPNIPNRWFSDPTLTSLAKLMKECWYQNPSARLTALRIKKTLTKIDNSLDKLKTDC

For `NC(=O)c1ccc(-c2nc(-c3ccc4c(c3)OCO4)c(-c3ccccn3)[nH]2)cc1` [SB431542], the “inhibition of BMP type I receptor ALK6” value (ALK6) is listed as “does not inhibit”, the “inhibition of BMP type I receptor ALK3” value (ALK3) is listed as “does not inhibit” and the “inhibition of BMP type I receptor ALK2” value (ALK2) is listed as “does not inhibit”. The “inhibition of ALK7” value (ALK7) was “inhibits”.
